Among the data in article PMC12040169 (PLOS Biology, 2025) are viability values, retold here.

The data set is described as follows: in vitro. The following applies: human, hela cells, % viability.
By viability is commonly meant a read-out of living cells in per cent, often relative to untreated cells. Take `Cc1csc(C(Cc2ccsc2)NCc2cccnc2)n1` (stereo not drawn) [CBK285020]: the viability at 28.5 h, 10 µM turned out to be 96.6%.

On to `CC(=O)N1Cc2cc(C)ccc2OC2(CCN(CC3CC3)CC2)C1` [CBK285021], for which the viability at 28.5 h, 10 µM amounted to 95%. With `CC1CCCN(C(=O)CCn2c(C(F)F)cc3cccnc32)C1` (stereo not drawn) [CBK285025] the figure was 97.9%; with `CCN1CCN(C(=O)CCn2c(C(F)F)cc3cccnc32)CC1` [CBK285026], 112%; with `CC(=O)NC(c1ccccn1)C1CCCN(C(=O)C(C)C)C1` (stereo not drawn) [CBK285030], 111%. For the compound `O=C1NCCCC12CCN(Cc1cccc3ncccc13)CC2` [CBK285033], the viability at 28.5 h, 10 µM stood at 101%.

Take `O=C(Cc1ccccc1F)N1CCC(c2cc3cccnc3[nH]2)CC1` [CBK285035]: the viability at 28.5 h, 10 µM came to 104%.

Consider `CC(CC(=O)N1CCC(c2cc3cccnc3[nH]2)CC1)n1cccn1` (stereo not drawn) [CBK285036], for which the viability at 28.5 h, 10 µM worked out at 100%. On to `CC(=O)N1Cc2ccccc2OC2(CCN(C(=O)C3CC3)CC2)C1` [CBK285037], for which the viability at 28.5 h, 10 µM is 104%. On to `CC(C)(C)OC(=O)N1CCC(c2nc3ccccc3cc2N)CC1` [CBK285038], for which the viability at 28.5 h, 10 µM was found to be 82.6%. For the compound `CC(=O)NC(c1ccccn1)C1CCCN(C(=O)C2CC2)C1` (stereo not drawn) [CBK285040], the viability at 28.5 h, 10 µM stood at 100%. Turning to `Cn1cc(CN2CCCC(c3cc4ccccc4cn3)C2)cn1` (stereo not drawn) [CBK285042], the viability at 28.5 h, 10 µM came to 101%. On to `Cc1csc(C(Cc2ccsc2)NC(=O)C2CCOCC2)n1` (stereo not drawn) [CBK285047], for which the viability at 28.5 h, 10 µM came out at 102%. For the compound `Cc1ccc2c(c1)C(=O)NCC1(CCN(Cc3ccccc3)CC1)O2` [CBK285048], the viability at 28.5 h, 10 µM stood at 104%. For `CC(=O)NC(c1ccccn1)C1CCN(C(=O)C2CCCCC2)CC1` (stereo not drawn) [CBK285049], the viability at 28.5 h, 10 µM worked out at 98%. Take `Cn1nc(C2CCN(C(=O)CCc3ccccc3)CC2)c2cccnc21` [CBK285050]: the viability at 28.5 h, 10 µM turned out to be 103%.

As to `Cc1c(C(=O)NC(Cc2cccs2)c2nccs2)cnn1C` (stereo not drawn) [CBK285053], the viability at 28.5 h, 10 µM came to 97.1%. On to `Cn1nccc1C(=O)NC(Cc1cccs1)c1nccs1` (stereo not drawn) [CBK285055], for which the viability at 28.5 h, 10 µM amounted to 102%. For the compound `c1cnc2[nH]c(C3CCNCC3)c(CN3CCCCCC3)c2c1` [CBK285057], the viability at 28.5 h, 10 µM is 102%. For `O=C(Cn1c(C2CCCNC2)cc2cccnc21)N1CCCC1` (stereo not drawn) [CBK285060], the viability at 28.5 h, 10 µM was found to be 94.4%. Take `CN(C)CC(=O)NC(Cc1cccs1)c1nccs1` (stereo not drawn) [CBK285061]: the viability at 28.5 h, 10 µM worked out at 91.1%. In the case of `O=C(c1n[nH]cc1Cl)N1CCCC(c2cc3ccccc3cn2)C1` (stereo not drawn) [CBK285062], the viability at 28.5 h, 10 µM turned out to be 88%.

With `O=C(CCn1c(C(F)F)cc2cccnc21)NC1CCCC1` [CBK285063], the viability at 28.5 h, 10 µM was 95.5%.

Take `O=C(CCn1c(C(F)F)cc2cccnc21)NC1CCCCC1` [CBK285064]: the viability at 28.5 h, 10 µM stood at 92.1%.

Regarding `COc1ccccc1NC(=O)CCn1c(C(F)F)cc2cccnc21` [CBK285065], the viability at 28.5 h, 10 µM is 99.2%. With `O=C(CCn1c(C(F)F)cc2cccnc21)NCc1ccc(F)cc1` [CBK285067] the figure was 102%; with `O=C(CCn1c(C(F)F)cc2cccnc21)NCc1ccccn1` [CBK285068], 100%.

As to `CN(Cc1ccncc1)C(=O)CCn1c(C(F)F)cc2cccnc21` [CBK285070], the viability at 28.5 h, 10 µM turned out to be 81%. The result for `CN(C)CC1COc2ccccc2CN1C(=O)Cc1ccccc1F` (stereo not drawn) [CBK285080] reads 89.5%. For `CCC(C)NC(=O)Cn1c(C2CCCNC2)cc2cccnc21` (stereo not drawn) [CBK285085], the viability at 28.5 h, 10 µM came out at 109%. As for `O=C(Cn1cccc2cc(C3CCCNC3)nc1-2)N1CCCC1` (stereo not drawn) [CBK285086], the viability at 28.5 h, 10 µM amounted to 88.7%. For `O=C1CCCN1CC(=O)N1CCCC(c2cc3ccccc3cn2)C1` (stereo not drawn) [CBK285091], the viability at 28.5 h, 10 µM was determined as 99.7%. For `O=C(Cn1ccnc1)NC(Cc1cccs1)c1nccs1` (stereo not drawn) [CBK285092], the viability at 28.5 h, 10 µM was found to be 93.2%.

With `Cc1n[nH]c(C)c1CC(=O)NC(Cc1cccs1)c1nccs1` (stereo not drawn) [CBK285093], the viability at 28.5 h, 10 µM was found to be 92.1%. The result for `O=C(CCCn1ccnc1)NC(Cc1cccs1)c1nccs1` (stereo not drawn) [CBK285094] reads 90.1%; that for `Cn1cc(Cl)c(C2CCCCCN2C(=O)c2ccco2)n1` (stereo not drawn) [CBK285105], 96.5%; that for `Cc1csc(C(Cc2ccsc2)NC(=O)c2ccnn2C)n1` (stereo not drawn) [CBK285107], 104%. As to `Cc1csc(C(Cc2ccsc2)NC(=O)c2ccc(=O)[nH]c2)n1` (stereo not drawn) [CBK285109], the viability at 28.5 h, 10 µM was determined as 95.2%. As for `O=C(NC(Cc1ccsc1)c1cccnc1)C1CCOCC1` (stereo not drawn) [CBK285110], the viability at 28.5 h, 10 µM stood at 92.9%. On to `Cn1cccc1CN1CCCC(n2c(=O)oc3ccccc32)C1` (stereo not drawn) [CBK285111], for which the viability at 28.5 h, 10 µM came out at 103%.

For the compound `CO[C@H]1CC[C@H](C(=O)NC(Cc2ccsc2)c2cccnc2)CC1` (stereo partly drawn) [CBK285114], the viability at 28.5 h, 10 µM came out at 107%. As to `Cc1c(C(=O)NC(Cc2ccsc2)c2cccnc2)cnn1C` (stereo not drawn) [CBK285115], the viability at 28.5 h, 10 µM came out at 110%. As for `O=C(NC(Cc1ccsc1)c1cccnc1)C1CCOC1` (stereo not drawn) [CBK285116], the viability at 28.5 h, 10 µM amounted to 106%.

On to `Cn1ccc(C(=O)NC(Cc2ccsc2)c2cccnc2)n1` (stereo not drawn) [CBK285117], for which the viability at 28.5 h, 10 µM is 107%. Regarding `Cn1cc(Cl)c(C2CCCCCN2C(=O)c2cc(C3CC3)on2)n1` (stereo not drawn) [CBK285120], the viability at 28.5 h, 10 µM was 109%. With `Cc1csc(C(Cc2ccsc2)NC(=O)C2CCCO2)n1` (stereo not drawn) [CBK285122], the viability at 28.5 h, 10 µM stood at 107%. The result for `Cc1csc(C(Cc2cccs2)NC(=O)CN(C)C)n1` (stereo not drawn) [CBK285124] reads 97.9%. Take `Cc1nonc1CC(=O)N[C@H]1C2CCCCC2[C@@H]1c1ccccc1` (stereo partly drawn) [CBK285126]: the viability at 28.5 h, 10 µM came to 102%. The result for `O=C(c1ccc(F)cc1)c1cn(CCO)c2c(Cl)nccc12` [CBK285129] reads 106%; that for `O=C(NC(Cc1cccs1)c1nccs1)c1ccncc1` (stereo not drawn) [CBK285134], 93.9%; that for `O=C(Cn1cccn1)NC(Cc1cccs1)c1nccs1` (stereo not drawn) [CBK285136], 94.4%. With `Cn1cc(C(=O)NC(Cc2ccsc2)c2nccs2)ccc1=O` (stereo not drawn) [CBK285140] the figure was 98.5%; with `C=CCn1cc(CN2CCCC(O)(c3ccc(F)cc3)CC2)c(C)n1` (stereo not drawn) [CBK285144], 92%; with `Cn1ncc(Cl)c1C1CCCCCN1C(=O)c1cccnc1` (stereo not drawn) [CBK285146], 108%. The result for `Cc1csc(C(Cc2ccsc2)NC(=O)c2cnn(C)c2C)n1` (stereo not drawn) [CBK285148] reads 104%; that for `Cc1csc(C(Cc2ccsc2)NC(=O)CCn2cccn2)n1` (stereo not drawn) [CBK285149], 93.7%; that for `Cc1csc(C(Cc2ccsc2)NC(=O)C2CCOC2)n1` (stereo not drawn) [CBK285150], 94.9%. Regarding `Cc1cnn(CC(=O)NC(Cc2ccsc2)c2nc(C)cs2)c1` (stereo not drawn) [CBK285151], the viability at 28.5 h, 10 µM turned out to be 86.6%.

On to `Cc1ncccc1C(=O)NC(Cc1cccs1)c1nccs1` (stereo not drawn) [CBK285153], for which the viability at 28.5 h, 10 µM is 91.4%. With `O=C(c1cccnc1)N1CCCC(c2cc3ccccc3cn2)C1` (stereo not drawn) [CBK285154], the viability at 28.5 h, 10 µM turned out to be 98.6%.

As for `Cn1cc(C(=O)N2CCCC(c3cc4ccccc4cn3)C2)cn1` (stereo not drawn) [CBK285155], the viability at 28.5 h, 10 µM is 106%. Regarding `CCc1cc(C(=O)N2CCCC(c3cc4ccccc4cn3)C2)on1` (stereo not drawn) [CBK285156], the viability at 28.5 h, 10 µM was found to be 101%.

Consider `O=C(Cn1c(C2CCOCC2)cc2cccnc21)NC1CCCC1` [CBK285157], for which the viability at 28.5 h, 10 µM is 86.3%. `O=C(CCCn1ccnc1)NC(Cc1ccsc1)c1cccnc1` (stereo not drawn) [CBK285158]: the viability at 28.5 h, 10 µM turned out to be 94.9%. With `c1ccc([C@@H]2CN(Cc3cccnc3)C[C@H]2c2cc[nH]n2)cc1` [CBK285160] the figure was 88.9%; with `C[C@H]1CN2C[C@H](O)CC2CN1Cc1cccn1Cc1ccccc1F` (stereo partly drawn) [CBK285165], 88.7%; with `O=C(c1ccncc1)N1CCCC(c2cc3ccccc3cn2)C1` (stereo not drawn) [CBK285166], 87%. For the compound `Cc1cnc2[nH]c(C(F)(F)F)c(CN3CCCC(CO)C3)c2c1` (stereo not drawn) [CBK285167], the viability at 28.5 h, 10 µM was found to be 93.6%.

`Cc1cnc2[nH]c(C3CCCN(C(=O)c4cn(C)nc4C)C3)cc2c1` (stereo not drawn) [CBK285170]: the viability at 28.5 h, 10 µM worked out at 110%.

In the case of `Cc1cnc2[nH]c(C3CCCN(C(=O)c4cnn(C)c4C)C3)cc2c1` (stereo not drawn) [CBK285171], the viability at 28.5 h, 10 µM is 101%.

Consider `COCC(C)NC(=O)CCn1ccc2ccncc21` (stereo not drawn) [CBK285172], for which the viability at 28.5 h, 10 µM amounted to 93.8%.

`CC1(C)CCCN(C(=O)CCn2ccc3ccncc32)C1` [CBK285173]: the viability at 28.5 h, 10 µM stood at 87.3%. `CCC1(CC)CCN(C(=O)CCn2ccc3ccncc32)C1` [CBK285176]: the viability at 28.5 h, 10 µM came out at 84.9%.

For `CC(=O)N1CCCC(c2cc3cccnc3n2CC(=O)N(C)C)C1` (stereo not drawn) [CBK285177], the viability at 28.5 h, 10 µM turned out to be 106%.

Turning to `Cc1ccnn1CCC(=O)N1CCCC1c1nc2ccccc2[nH]1` (stereo not drawn) [CBK285178], the viability at 28.5 h, 10 µM was 110%.

As to `Cn1cc([C@@H]2CN(Cc3ccc(F)c(F)c3)C[C@H]2N)c2ccncc21` [CBK285179], the viability at 28.5 h, 10 µM worked out at 88.3%. Turning to `Cc1ccc(CN2C[C@@H](N)[C@H](c3cn(C)c4cnccc34)C2)o1` [CBK285180], the viability at 28.5 h, 10 µM was found to be 84.2%. Regarding `O=C(c1cccs1)N1CCC(c2onc3c2CCCC3)CC1` [CBK285181], the viability at 28.5 h, 10 µM came to 93.3%. As for `COC(=O)C1(Cc2cc(-c3ccccc3F)no2)CCOCC1` [CBK285182], the viability at 28.5 h, 10 µM came to 87.8%. As for `Cc1ccn2cc(-c3ccc4c(c3)CC(C)N4S(C)(=O)=O)nc2c1` (stereo not drawn) [CBK285183], the viability at 28.5 h, 10 µM turned out to be 84.6%.

With `Cc1ccc2nc(-c3ccc4c(c3)CC(C)N4S(C)(=O)=O)cn2c1` (stereo not drawn) [CBK285184], the viability at 28.5 h, 10 µM worked out at 79.4%. The result for `CCOC(=O)CC(=O)N1CCC(c2onc3c2CC(C)CC3)CC1` (stereo not drawn) [CBK285187] reads 100%; that for `CN(C)CC1CN(C(=O)c2ccccc2F)Cc2ccccc2O1` (stereo not drawn) [CBK285188], 86.9%; that for `O=C(C1CC1)N1CCc2cc(-c3cn4ccccc4n3)ccc21` [CBK285193], 99.2%.
